Experiments:
human RXFP1 = human RXFP1 (Homo sapiens (Human), UniProt Q9HBX9); assay: hRXFP1 HEK293 cAMP assay; format: cell-based; details: HEK293 cells stably expressing human RXFP1; 30 min at room temperature; HTRF cAMP
Experimental: RXFP1 Cyclic Adenosine Monophosphate (CAMP) Assays. Human embryonic kidney cells 293 (HEK293) cells and HEK293 cells stably expressing human RXFP1, were cultured in MEM medium supplemented with 10% qualified FBS, and 300 μg/ml hygromycin (Life Technologies). Cells were dissociated and suspended in assay buffer. The assay buffer was HBSS buffer (with calcium and magnesium) containing 20 mM HEPES, 0.05% BSA, and 0.5 mM IBMX. Cells (3000 cells per well, except 1500 cell per well for HEK293 cells stably expressing human RXFP1) were added to 384-well Proxiplates (Perkin-Elmer). Cells were immediately treated with test compounds in DMSO (2% final) at final concentrations in the range of 0.010 nM to 50 μM. Cells were incubated for 30 min at room temperature. The level of intracellular cAMP was determined using the HTRF HiRange CAMP assay reagent kit (Cisbio) according to manufacturer's instructions. Solutions of cryptate conjugated anti-cAMP and d2 fluorophore-labelled cAMP were made in a supplied lysis buffer separately. Upon completion of the reaction, the cells were lysed with equal volume of the d2-cAMP solution and anti-cAMP solution. After a 1 h room temperature incubation, time-resolved fluorescence intensity was measured using the Envision (Perkin-Elmer) at 400 nm excitation and dual emission at 590 nm and 665 nm. A calibration curve was constructed with an external cAMP standard at concentrations ranging from 2.7 μM to 0.1 μM by plotting the fluorescent intensity ratio from 665 nm emission to the intensity from the 590 nm emission against cAMP concentrations. The potency and activity of a compound to […] cAMP production was then determined by fitting to a 4-parametric logistic equation from a plot of cAMP level versus compound concentrations.
The examples disclosed below were tested in the human RXFP1 (hRXFP1) HEK293 cAMP assay described above and found to have agonist activity. Table A lists EC50 values in the hRXFP1 HEK293 cAMP assay measured for the examples.

[1] = intravenous (IV) formulation; cited from earlier work

human RXFP1, sequence (Q9HBX9 whole entry): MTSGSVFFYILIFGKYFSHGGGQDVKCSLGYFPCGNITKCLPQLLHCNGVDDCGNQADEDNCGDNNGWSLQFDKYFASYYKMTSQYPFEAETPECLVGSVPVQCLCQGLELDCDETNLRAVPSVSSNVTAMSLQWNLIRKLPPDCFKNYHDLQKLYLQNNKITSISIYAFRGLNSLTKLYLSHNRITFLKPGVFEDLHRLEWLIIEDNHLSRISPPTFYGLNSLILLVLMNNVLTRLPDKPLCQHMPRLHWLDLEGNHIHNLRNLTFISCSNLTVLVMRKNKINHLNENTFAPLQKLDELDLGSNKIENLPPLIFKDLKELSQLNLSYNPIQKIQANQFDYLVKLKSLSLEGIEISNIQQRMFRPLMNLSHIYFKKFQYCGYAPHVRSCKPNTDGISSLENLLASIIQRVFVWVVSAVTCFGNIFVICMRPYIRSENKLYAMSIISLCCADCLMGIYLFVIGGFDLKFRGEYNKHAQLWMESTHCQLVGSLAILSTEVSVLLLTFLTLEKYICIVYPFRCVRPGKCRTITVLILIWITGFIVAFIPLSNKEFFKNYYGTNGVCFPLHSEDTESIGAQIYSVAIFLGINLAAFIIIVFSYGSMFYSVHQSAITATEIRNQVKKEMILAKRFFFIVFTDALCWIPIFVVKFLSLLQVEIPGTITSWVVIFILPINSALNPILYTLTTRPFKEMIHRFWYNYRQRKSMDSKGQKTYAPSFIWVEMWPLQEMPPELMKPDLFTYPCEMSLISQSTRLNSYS

Compound	EC50 (human RXFP1) [nM]	first-phase pharmacokinetic half-life [1] [min]
COc1ccc(-c2cc(C(=O)O)ccc2F)cc1C(=O)N[C@H]1[C@@H]2CCC[C@@H]2[C@H]1C(=O)Nc1ccc(F)c(C(F)(F)F)c1 [Example 1, 6-fluoro-3′-(((1S,5R,6S,7R)-7-((4-fluoro-3-(trifluoromethyl)phenyl)carbamoyl)bicyclo[3.2.0]heptan-6-yl)carbamoyl)-4′-methoxy-[1,1′-biphenyl]-3-carboxylic acid]	1190	
COc1ccc(C#CCO)cc1C(=O)N[C@H]1[C@@H]2CCC[C@@H]2[C@H]1C(=O)Nc1ccc(F)c(C(F)(F)F)c1 [Example 2, (1R,5S,6R,7S)—N-(4-fluoro-3-(trifluoromethyl)phenyl)-7-(5-(3-hydroxyprop-1-yn-1-yl)-2-methoxybenzamido) bicyclo[3.2.0]heptane-6-carboxamide]	823	
COc1ccc(C2=NOC3CC(O)CC23)cc1C(=O)NC1C2CCCC2C1C(=O)Nc1ccc(F)c(C(F)(F)F)c1 [Example 3, (1R,5S,6R,7S)-N-(4-fluoro-3-(tri-fluoromethyl)-phenyl)-7-(5-(5-hydroxy-3a,5,6,6a-tetrahydro-4H-cyclopenta[d]isox-azol-3-yl)-2-meth-oxybenzamido)-bicyclo[3.2.0] heptane-6-carbox-amide]	916	
COc1ccc(C2=NOC(CO)C2)cc1C(=O)NC1C2CCCC2C1C(=O)Nc1ccc(F)c(C(F)(F)F)c1 [Example 5, (1R,5S,6R,7S)-N-(4-fluoro-3-(tri-fluoromethyl)-phenyl)-7-(5-(5-(hydroxymethyl)-4,5-dihydroisox-azol-3-yl)-2-meth-oxybenzamido)-bicyclo[3.2.0] heptane-6-carbox-amide]	2230	
COc1ccc(-c2cc(C(OC(=O)Nc3ccccc3)C(=O)O)ccc2F)cc1C(=O)N[C@H]1[C@@H]2CCC[C@@H]2[C@H]1C(=O)Nc1ccc(F)c(C(F)(F)F)c1 (stereo partly drawn) [Example 7, 2-(6-fluoro-3′-(((1S,5R,6S,7R)-7-((4-fluoro-3-(trifluoromethyl)phenyl)carbamoyl)bicyclo[3.2.0]heptan-6-yl)carbamoyl)-4′-methoxy-[1,1′-biphenyl]-3-yl)-2-((phenylcarbamoyl)oxy) acetic acid]	12	
Serelaxin		5.4

From US20250049765A1, “BICYCLO [3.2.0] HEPTANE BIS(AMIDE) RXFP1 AGONISTS” (BRISTOL-MYERS SQUIBB COMPANY, priority 2021, published 2025)
